≈ marks a conversion by molar mass, not a printed value. Calls of active or inactive are those of the source. No cut-off for these calls is given here.
How the values were obtained:
Klebsiella pneumoniae [1] = assay: Antibacterial activity against Klebsiella pneumoniae ATCC 13883 assessed as bacterial growth inhibition; assay type: functional
Streptococcus pyogenes [2] = assay: Antibacterial activity against Streptococcus pyogenes ATCC 19615 assessed as bacterial growth inhibition; assay type: functional
Staphylococcus aureus [3] = assay: Antibacterial activity against Staphylococcus aureus […] assessed as zone of inhibition at 5 mg/ml; assay type: functional; conditions: for zone of inhibition at 5000 µg/mL: read-out: IZ
Bacillus subtilis [4] = assay: Antibacterial activity against Bacillus subtilis ATCC 23857 assessed as zone of inhibition at 5 mg/ml; assay type: functional; conditions: for zone of inhibition at 5000 µg/mL: read-out: IZ
Staphylococcus aureus [5] = assay: Antibacterial activity against Staphylococcus aureus […] assessed as zone of inhibition at 10 mg/ml; assay type: functional; conditions: for zone of inhibition at 10000 µg/mL: read-out: IZ
Salmonella typhi [6] = assay: Antibacterial activity against Salmonella typhi ATCC 6539 assessed as bacterial growth inhibition; assay type: functional, Salmonella enterica subsp. enterica serovar Typhi
Streptococcus pyogenes [7] = assay: Antibacterial activity against Streptococcus pyogenes ATCC 19615 assessed as zone of inhibition at 10 mg/ml; assay type: functional; conditions: for zone of inhibition at 10000 µg/mL: read-out: IZ
Staphylococcus aureus [8] = assay: Antibacterial activity against Staphylococcus aureus […] assessed as bacterial growth inhibition; assay type: functional
Corynebacterium [9] = assay: Antibacterial activity against Corynebacterium ATCC 49368 assessed as zone of inhibition at 15 mg/ml; assay type: functional; conditions: for zone of inhibition at 15000 µg/mL: read-out: IZ
Bacillus subtilis [10] = assay: Antibacterial activity against Bacillus subtilis ATCC 23857 assessed as zone of inhibition at 15 mg/ml; assay type: functional; conditions: for zone of inhibition at 15000 µg/mL: read-out: IZ
Streptococcus pyogenes [11] = assay: Antibacterial activity against Streptococcus pyogenes ATCC 19615 assessed as zone of inhibition at 5 mg/ml; assay type: functional; conditions: for zone of inhibition at 5000 µg/mL: read-out: IZ
Bacillus subtilis [12] = assay: Antibacterial activity against Bacillus subtilis ATCC 23857 assessed as zone of inhibition at 10 mg/ml; assay type: functional; conditions: for zone of inhibition at 10000 µg/mL: read-out: IZ
Escherichia coli [13] = assay: Antibacterial activity against Escherichia coli ATCC 25922 assessed as bacterial growth inhibition; assay type: functional
Corynebacterium [14] = assay: Antibacterial activity against Corynebacterium ATCC 49368 assessed as bacterial growth inhibition; assay type: functional
Staphylococcus aureus [15] = assay: Antibacterial activity against Staphylococcus aureus […] assessed as zone of inhibition at 15 mg/ml; assay type: functional; conditions: for zone of inhibition at 15000 µg/mL: read-out: IZ
Streptococcus pyogenes [16] = assay: Antibacterial activity against Streptococcus pyogenes ATCC 19615 assessed as zone of inhibition at 15 mg/ml; assay type: functional; conditions: for zone of inhibition at 15000 µg/mL: read-out: IZ
Bacillus subtilis [17] = assay: Antibacterial activity against Bacillus subtilis ATCC 23857 assessed as bacterial growth inhibition; assay type: functional
Pseudomonas aeruginosa [18] = assay: Antibacterial activity against Pseudomonas aeruginosa ATCC 27853 assessed as zone of inhibition at 10 mg/ml; assay type: functional; conditions: read-out: IZ
Corynebacterium [19] = assay: Antibacterial activity against Corynebacterium ATCC 49368 assessed as zone of inhibition at 10 mg/ml; assay type: functional; conditions: for zone of inhibition at 10000 µg/mL: read-out: IZ
Corynebacterium [20] = assay: Antibacterial activity against Corynebacterium ATCC 49368 assessed as zone of inhibition at 5 mg/ml; assay type: functional; conditions: read-out: IZ
Escherichia coli [21] = assay: Antibacterial activity against Escherichia coli ATCC 25922 assessed as zone of inhibition at 15 mg/ml; assay type: functional; conditions: read-out: IZ
Escherichia coli [22] = assay: Antibacterial activity against Escherichia coli ATCC 25922 assessed as zone of inhibition at 10 mg/ml; assay type: functional; conditions: read-out: IZ
Pseudomonas aeruginosa [23] = assay: Antibacterial activity against Pseudomonas aeruginosa ATCC 27853 assessed as zone of inhibition at 5 mg/ml; assay type: functional; conditions: read-out: IZ
Klebsiella pneumoniae [24] = assay: Antibacterial activity against Klebsiella pneumoniae ATCC 13883 assessed as zone of inhibition at 15 mg/kg; assay type: functional; conditions: read-out: IZ
Klebsiella pneumoniae [25] = assay: Antibacterial activity against Klebsiella pneumoniae ATCC 13883 assessed as zone of inhibition at 10 mg/kg; assay type: functional; conditions: read-out: IZ
Salmonella typhi [26] = assay: Antibacterial activity against Salmonella typhi ATCC 6539 assessed as zone of inhibition at 15 mg/kg; assay type: functional, Salmonella enterica subsp. enterica serovar Typhi; conditions: for zone of inhibition at 15 mg/kg: Salmonella enterica, read-out: IZ
Salmonella typhi [27] = assay: Antibacterial activity against Salmonella typhi ATCC 6539 assessed as zone of inhibition at 10 mg/kg; assay type: functional, Salmonella enterica subsp. enterica serovar Typhi; conditions: for zone of inhibition at 10 mg/kg: Salmonella enterica, read-out: IZ
Pseudomonas aeruginosa [28] = assay: Antibacterial activity against Pseudomonas aeruginosa ATCC 27853 assessed as zone of inhibition at 15 mg/ml; assay type: functional; conditions: read-out: IZ
Escherichia coli [29] = assay: Antibacterial activity against Escherichia coli ATCC 25922 assessed as zone of inhibition at 5 mg/ml; assay type: functional; conditions: read-out: IZ
HepG2 = assay: Cytotoxicity against human HepG2 cells at up to 100 uM by MTT assay; assay type: cell-based
Salmonella typhi [30] = assay: Antibacterial activity against Salmonella typhi ATCC 6539 assessed as zone of inhibition at 5 mg/kg; assay type: functional, Salmonella enterica subsp. enterica serovar Typhi; conditions: Salmonella enterica, read-out: IZ
Pseudomonas aeruginosa [31] = assay: Antibacterial activity against Pseudomonas aeruginosa ATCC 27853 assessed as bacterial growth inhibition; assay type: functional
LLC-PK1 = assay: Cytotoxicity against pig LLC-PK1 cells at up to 100 uM by MTT assay; assay type: cell-based, Sus scrofa
Klebsiella pneumoniae [32] = assay: Antibacterial activity against Klebsiella pneumoniae ATCC 13883 assessed as zone of inhibition at 5 mg/kg; assay type: functional; conditions: read-out: IZ
[33] = Salmonella enterica subsp. enterica serovar Typhi

Molecule	MIC (Klebsiella pneumoniae [1])	MIC (Streptococcus pyogenes [2]) [µg/mL]	zone of inhibition at 5000 µg/mL (Bacillus subtilis [4]) [mm]	zone of inhibition at 10000 µg/mL (Staphylococcus aureus [5]) [mm]	zone of inhibition at 10000 µg/mL (Streptococcus pyogenes [7]) [mm]	MIC (Staphylococcus aureus [8]) [µg/mL]	zone of inhibition at 15000 µg/mL (Corynebacterium [9]) [mm]	zone of inhibition at 15000 µg/mL (Bacillus subtilis [10]) [mm]	zone of inhibition at 5000 µg/mL (Streptococcus pyogenes [11]) [mm]	zone of inhibition at 10000 µg/mL (Bacillus subtilis [12]) [mm]	MIC (Escherichia coli [13])	MIC (Corynebacterium [14]) [µg/mL]	zone of inhibition at 15000 µg/mL (Staphylococcus aureus [15]) [mm]	zone of inhibition at 15000 µg/mL (Streptococcus pyogenes [16]) [mm]	MIC (Bacillus subtilis [17]) [µg/mL]	zone of inhibition at 10000 µg/mL (Pseudomonas aeruginosa [18]) [mm]	zone of inhibition at 5000 µg/mL (Staphylococcus aureus [3]) [mm]	zone of inhibition at 10000 µg/mL (Corynebacterium [19]) [mm]	zone of inhibition at 15 mg/kg (Klebsiella pneumoniae [24]) [mm]	zone of inhibition at 15000 µg/mL (Pseudomonas aeruginosa [28]) [mm]	further results
N.O=NN(O)c1ccccc1	inactive	20	10	9	10	20	10	17	8	15	inactive	20	12	20	16						MIC (Staphylococcus aureus [3]): inactive; MIC (Salmonella typhi [6]; Salmonella enterica): 20 µg/mL
O=C(O)c1cn(C2CC2)c2cc(N3CCNCC3)c(F)cc2c1=O [CIPROFLOXACIN]			12	10	13		19	27	10	15		4 (≈ 12.1 µM)	22	26	2 (≈ 6.04 µM)	18	7	16	25	25	zone of inhibition at 5000 µg/mL (Corynebacterium [20]): 10 mm; zone of inhibition at 15000 µg/mL (Escherichia coli [21]): 10 mm; zone of inhibition at 10000 µg/mL (Escherichia coli [22]): 11 mm; zone of inhibition at 5000 µg/mL (Pseudomonas aeruginosa [23]): 15 mm; zone of inhibition at 10 mg/kg (Klebsiella pneumoniae [25]): 12 mm; zone of inhibition at 15 mg/kg (Salmonella typhi [26]): 32 mm; zone of inhibition at 10 mg/kg (Salmonella typhi [27]): 15 mm
N.O=NN(O)c1ccc(CCl)cc1	inactive	8	10	12	12	16	17	18	10	14	inactive	16	20	18	16	10	8	14	10	15	zone of inhibition at 5000 µg/mL (Corynebacterium [20]): 13 mm; MIC (Salmonella typhi [6]; [33]): inactive; zone of inhibition at 10 mg/kg (Klebsiella pneumoniae [25]): 7 mm
N.O=NN(O)c1ccc(Cl)cc1	20 µg/mL	4	14	9	15	4	23	35	12	19	20 µg/mL	8	25	27	2	10	9	16.1	15	13	zone of inhibition at 5000 µg/mL (Escherichia coli [29]): 10 mm; zone of inhibition at 5000 µg/mL (Corynebacterium [20]): 13 mm; Activity (HepG2): Non-Toxic; zone of inhibition at 5 mg/kg (Salmonella typhi [30]): 9 mm; MIC (Salmonella typhi [6]; Salmonella enterica): 20 µg/mL; zone of inhibition at 15000 µg/mL (Escherichia coli [21]): 20 mm; zone of inhibition at 10000 µg/mL (Escherichia coli [22]): 14 mm; zone of inhibition at 5000 µg/mL (Pseudomonas aeruginosa [23]): 5 mm; zone of inhibition at 10 mg/kg (Klebsiella pneumoniae [25]): 11 mm; zone of inhibition at 15 mg/kg (Salmonella typhi [26]): 19 mm; MIC (Pseudomonas aeruginosa [31]): 20 µg/mL; zone of inhibition at 10 mg/kg (Salmonella typhi [27]): 13 mm; Activity (LLC-PK1): Non-Toxic; zone of inhibition at 5 mg/kg (Klebsiella pneumoniae [32]): 8 mm
GENTAMICIN						8															inhibition zone (IZ) (Staphylococcus aureus [3]): 10 mm; inhibition zone (IZ) (Bacillus subtilis [4]): 5 mm; inhibition zone (IZ) (Staphylococcus aureus [5]): 11 mm; inhibition zone (IZ) (Corynebacterium [19]): 10 mm; MIC (Salmonella typhi [6]; [33]): 16 µg/mL; inhibition zone (IZ) (Streptococcus pyogenes [7]): 13 mm; inhibition zone (IZ) (Corynebacterium [9]): 23 mm; inhibition zone (IZ) (Bacillus subtilis [10]): 24 mm; inhibition zone (IZ) (Streptococcus pyogenes [11]): 3 mm; inhibition zone (IZ) (Bacillus subtilis [12]): 10 mm; inhibition zone (IZ) (Staphylococcus aureus [15]): 22 mm; inhibition zone (IZ) (Salmonella typhi [26]; [33]): 26 mm; inhibition zone (IZ) (Streptococcus pyogenes [16]): 25 mm; inhibition zone (IZ) (Salmonella typhi [27]; [33]): 12 mm
CN[C@@H]1[C@H](O[C@H]2[C@H](O[C@H]3[C@H](O)[C@@H](O)[C@H](N=C(N)N)[C@@H](O)[C@@H]3N=C(N)N)O[C@@H](C)[C@]2(O)C=O)O[C@@H](CO)[C@H](O)[C@H]1O [STREPTOMYCIN]	16 µg/mL (≈ 27.5 µM)	8 (≈ 13.8 µM)		4	3		20	20	2	10	16 µg/mL (≈ 27.5 µM)		8	10		11	2	8	14	15	
